We go through six compounds from patent publication US4190647A, “Polypeptides and methods” (Sloan-Kettering Institute for Cancer Research, priority 1979, dated 1980).

Assay [1] is described as follows: activity of terminally substituted pentapeptides in Twomey solution compared with the basic pentapeptide of Example I. It counts as cell-based.
The test system of assay [2] is chicken bone marrow. Kind of assay: induction of Th-1 (T-cell) antigen on chicken bone marrow, cytotoxicity assay. The class given is cell-based. The following applies: peptide at 1 μg/mil (method text: 0.1 μg/ml); control incubations subtracted. The method, then: To determine the pharmacological activity and characteristics of these pentapeptides, use was made of the induction of Th-1 (T-cell) antigen on chicken bone marrow for use as an assay of the peptides at a concentration of 1 μg/mil. This method is described in Science, Brand et al, Vol. 193, pp. 319-321, July, 1976. In this method, pooled cells from femur and tibiotarsus of newly hatched chicks of strain SC (Hy-Line) are fractionated by ultracentrifugation on a five-layer discontinuous bovine serum albumin (BSA) gradient (11). Cells from each interface are washed and suspended for incubation at a concentration of 5×10^6 cells per milliliter with the peptide (0.1 μg/ml) in RPMI 1630 medium supplemented with 15 mM Hepes, 5 percent y-globulin-free fetal calf serum, deoxyribonuclease (14 to 18 unit/ml), heparin (5 unit/ml), penicillin (100 unit/ml), and streptomycin (100 μg/ml). Controls are incubated with BSA (1 μg/ml) or medium alone. After incubation, the cells are tested in the cytotoxicity assay using chicken and guinea pig complement fractions. The proportion of Bu-1^+ or Th-1^+ cells in each layer are calculated as a cytotoxicity index, 100 (a-b)/a, where a and b are the percentages of viable cells in the complement control and test preparation, respectively. The percentage of cells induced is obtained by subtracting the mean values in the control incubations without inducing agents (usually 1 to 3 percent) from those of the test inductions.

Assay [3] relates to precursors present in bone marrow or spleen. As to conditions: precursors from bone marrow or spleen; cited from earlier work.

Where a SMILES comes first, the peptide text is derived from it.

`CC[C@H](C)[C@H](NC(=O)[C@H](CC(N)=O)NC(=O)[C@H](Cc1ccc(O)cc1)NC(C)=O)C(=O)N[C@@H](CCC(N)=O)C(=O)N[C@@H](CCCCN)C(=O)O` [Example III, CH3 CONH-TYR-ASN-ILE-GLN-LYS-COOH] (Ac-YNIQK-OH): the “activity relative to the basic pentapeptide of Example I” value in assay [1] (1 μg/ml in 14% Twomey solution) is “maximum and minimum activities comparable to the basic pentapeptide of Example I”. As for `CC[C@H](C)[C@H](NC(=O)[C@H](CC(N)=O)NC(=O)[C@@H](N)Cc1ccc(O)cc1)C(=O)N[C@@H](CCC(N)=O)C(=O)N[C@@H](CCCCN)C(N)=O` [Example IV, H2 N-TYR-ASN-ILE-GLN-LYS-CONH2] (H-YNIQK-NH2), in assay [1] (1 μg/ml in 6% Twomey solution), the “activity relative to the basic pentapeptide of Example I” value was “activity comparable to the basic pentapeptide of Example I”.

Regarding `CC[C@H](C)[C@H](NC(=O)[C@H](CC(N)=O)NC(=O)[C@H](C)N)C(=O)N[C@@H](CCC(N)=O)C(=O)N[C@@H](CCCCN)C(=O)O` [Example XXII, H2 N-ALA-ASN-ILE-GLN-LYS-COOH] (H-ANIQK-OH), the “% Induction of Th-1 (T-cell) antigen on chicken bone marrow” value in assay [2] is listed as 12%. The same measure, in the same setting: in the case of `CC[C@H](C)[C@H](NC(=O)[C@H](C)NC(=O)[C@@H](N)Cc1ccc(O)cc1)C(=O)N[C@@H](CCC(N)=O)C(=O)N[C@@H](CCCCN)C(=O)O` [Example XXIII, H2 N-TYR-ALA-ILE-GLN-LYS-COOH] (H-YAIQK-OH) it was 15%. For the compound `C[C@H](NC(=O)[C@H](CC(N)=O)NC(=O)[C@@H](N)Cc1ccc(O)cc1)C(=O)N[C@@H](CCC(N)=O)C(=O)N[C@@H](CCCCN)C(=O)O` [Example XXIV, H2 N-TYR-ASN-ALA-GLN-LYS-COOH] (H-YNAQK-OH), the “% Induction of Th-1 (T-cell) antigen on chicken bone marrow” value in assay [2] turned out to be 21%. Turning to Ubiquitin, in assay [3], the “concentration inducing in vitro differentiation of both T-cell and B-cell immunocytes” value is “nanogram concentrations”.
